The subject of one assay is HeLa. The experiment in a line: ATP-based viability loss in HeLa cells – cell-based, CellTiter-Glo luminescence, cherry-pick samples, cytotoxicity control for MITF activator project, dose response (AID 540259). It counts as functional. The settings on record: Homo sapiens. In general terms: In ATP-based viability assays light output follows the ATP content of the culture.

The nature of assay [1]: HIV-1 AD8 envelope cell-cell fusion blockers – cherry-pick, dose response (AID 652062).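 Also: luciferase signal from cell-cell fusion driven by HIV-1 clade B AD8 Env; potency is for inhibitors of fusion seen as a drop in luminescence.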 It counts as functional, cell-based.
In assay [2] the test system is HEK293. As to the kind of experiment: cells. As to conditions: Homo sapiens.
The nature of assay [3]: blockers of HIV-1 ZM109 envelope-driven cell-cell fusion – HeLa effector, CEM target cells, luciferase, cherry-pick, dose response (AID 652058).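 Also: luciferase signal from HIV-1 Env mediated cell-cell fusion of effector and target cells.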 It counts as functional, cell-based.
The test system of assay [4] is HEK293. As to the kind of experiment: cells. As to conditions: Homo sapiens. This is another data set of the same source.
The nature of assay [5]: off-target signal loss in HeLa-CEM21 co-culture – HeLa F-luc CTL cells, cherry-picked, counter-screen for HIV-1 Env fusion inhibitor project, dose response (AID 652040).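 Also: potency for signal decrease marking cytotoxic or nonspecific inhibition.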 It counts as functional, cell-based. (A counterscreen serves to expose hits that act by an unwanted route or on another target.)
Assay [6] can be described thus: blockers of HIV-1 envelope-mediated cell-cell fusion – cherry-pick, dose response (AID 652057). It counts as functional, cell-based.
Assay [7] can be described thus: viability loss in THP-1 monocytes – THP-1 cells, cytotoxicity control for Vif-APOBEC3G degradation inhibitor project, dose response (AID 1117359). It counts as functional. As to conditions: THP-1.
Assay [8] concerns the target T1, Microphthalmia-associated transcription factor (Homo sapiens, UniProt O75030).
T1 sequence (O75030 whole entry): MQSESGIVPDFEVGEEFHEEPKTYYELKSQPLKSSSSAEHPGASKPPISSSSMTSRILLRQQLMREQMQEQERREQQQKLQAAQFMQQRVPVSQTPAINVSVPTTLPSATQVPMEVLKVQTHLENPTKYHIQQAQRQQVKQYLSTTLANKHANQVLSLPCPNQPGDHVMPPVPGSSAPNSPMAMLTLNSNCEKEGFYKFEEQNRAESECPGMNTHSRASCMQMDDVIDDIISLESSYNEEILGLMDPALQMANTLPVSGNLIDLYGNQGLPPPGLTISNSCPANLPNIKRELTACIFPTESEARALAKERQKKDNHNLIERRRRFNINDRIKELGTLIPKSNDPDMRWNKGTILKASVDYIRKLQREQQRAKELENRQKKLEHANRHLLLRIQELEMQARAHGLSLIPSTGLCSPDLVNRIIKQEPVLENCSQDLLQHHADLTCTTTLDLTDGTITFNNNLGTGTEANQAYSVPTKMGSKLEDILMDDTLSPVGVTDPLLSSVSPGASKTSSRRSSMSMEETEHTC
The experiment in a line: reducers of TRPM1 reporter luminescence, concentration series – cell-based, SK-MEL-5, cherry-picked, set 3, MITF inhibitor project, dose response (AID 493073).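 Also: SK-MEL-5 melanoma cells with luciferase driven by the MITF target TRPM1 promoter.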 It counts as functional.

Assay [9] can be described thus: Luminescence Cell-Based Dose Retest to Confirm Inhibitors of Cancer Stem Cells. [Related pubchem assays (depositor defined):AID2717, AID2721]. The settings on record: Homo sapiens. It counts as functional.
In assay [10] the target is Hepatocyte nuclear factor 4-alpha (Homo sapiens, UniProt P41235). It counts as functional, cell-based.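 Also: biochemical luminescence-based dose-response counterscreen measuring inhibition of HNF4 dimerization, run alongside a screen for blockers of ABHD5–perilipin-5 interaction; split luciferase complementation of HNF4 fusion proteins in cell lysate measuring dimerization.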
In a further assay the test system is A-375. The experiment in a line: proliferation inhibition in MITF-low A375 cells – cell-based, cherry-pick samples, set 2, counter-screen for MITF modulator project, dose response (AID 540335). It counts as functional. The settings on record: Homo sapiens.
Assay [11] has as its target T2, Type-1 angiotensin II receptor (Homo sapiens, UniProt P30556).
T2 sequence (P30556 whole entry): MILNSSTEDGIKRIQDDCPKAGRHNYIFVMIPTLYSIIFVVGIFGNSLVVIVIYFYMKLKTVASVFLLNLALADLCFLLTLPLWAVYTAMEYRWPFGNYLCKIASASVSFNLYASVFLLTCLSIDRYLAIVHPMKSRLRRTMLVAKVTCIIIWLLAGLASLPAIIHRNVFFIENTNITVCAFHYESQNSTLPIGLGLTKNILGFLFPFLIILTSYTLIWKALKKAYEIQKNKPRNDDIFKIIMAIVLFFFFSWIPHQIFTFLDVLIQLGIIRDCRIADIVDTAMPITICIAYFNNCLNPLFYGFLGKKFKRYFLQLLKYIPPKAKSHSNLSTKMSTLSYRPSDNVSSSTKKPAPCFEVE
The experiment in a line: antagonism of angiotensin II type 1 receptor – cell-based, uHTS hits, selectivity assay for APJ receptor antagonist project, dose response (AID 463214).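 Also: antagonist potency against angiotensin II stimulated AT1 response.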 It counts as functional.

The next assay concerns the target Beta-galactosidase (Escherichia coli, UniProt Q8VNN2). As to the kind of experiment: PubChem AID 485352. It counts as functional.
In assay [12] the test system is HEK293. As to the kind of experiment: NOD2 signaling inhibitors in MDP-stimulated cells, cell-based, uHTS, luminescence (AID 2001). It counts as functional. As to conditions: Homo sapiens.
Assay [13] addresses T3, Nucleotide-binding oligomerization domain-containing protein 2 (Homo sapiens, UniProt Q9HC29). As to the kind of experiment: PubChem AID 2334. It counts as functional.
For assay [14], the system named is HEK293. The experiment in a line: cells. The settings on record: Homo sapiens. The source holds these as a separate data set.
Assay [15] concerns HEK293. As to the kind of experiment: cells. It counts as functional, cell-based. The settings on record: Homo sapiens.
The target of assay [16] is Nucleotide-binding oligomerization domain-containing protein 1 (Homo sapiens, UniProt Q9Y239). As to the kind of experiment: blockers of NOD1 pathway activity – revised, SAR follow-up (AID 2333). It counts as functional.
Assay [17] has as its system HEK293. The experiment in a line: cells. As to conditions: Homo sapiens. It counts as functional, cell-based. This is another data set of the same source.
For assay [18], the system named is HEK293. As to the kind of experiment: cells. The settings on record: Homo sapiens. It counts as functional, cell-based. The source holds these as a separate data set.
The target of a further assay is Tumor necrosis factor (Homo sapiens, UniProt P01375). As to the kind of experiment: analog potency on TNFa NF-kB signaling – cell-based, revised, SAR follow-up (AID 2337). It counts as functional.
The subject of assay [19] is HEK293. As to the kind of experiment: inhibition of NOD1-driven NF-kB reporter – cell-based, luminescence, uHTS, primary screen (AID 1578). It counts as functional. As to conditions: Homo sapiens.
In assay [20] the target is T3, Nucleotide-binding oligomerization domain-containing protein 2. The experiment in a line: inhibition of NOD2-driven NF-kB reporter – cell-based, luminescence, uHTS, HEK293 (AID 1566). It counts as functional.
Assay [21] deals with T4, Endoribonuclease toxin MazF (Escherichia coli K-12, UniProt P0AE70).
T4 sequence (P0AE70 whole entry): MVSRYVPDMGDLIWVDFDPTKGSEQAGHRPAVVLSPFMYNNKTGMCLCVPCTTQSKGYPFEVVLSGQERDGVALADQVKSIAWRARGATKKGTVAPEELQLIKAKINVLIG
As to the kind of experiment: activation of MazEF endoribonuclease cleavage – biochemical, fluorescence, single-stranded RNA substrate, uHTS hits, dose response (AID 588481). It counts as functional.

Assay [22] concerns the target T4, Endoribonuclease toxin MazF. The experiment in a line: substrate-only fluorescence increase artefacts – biochemical, single-stranded RNase substrate, counter-screen for MazEF activator project, dose response (AID 588502). It counts as functional.

Calls of active or inactive are those of the source.

Usually AC50 stands for the concentration giving half of the maximal activity seen. The EC50 is the midpoint of the concentration-response curve. The term CC50 denotes the concentration at which the toxic effect on the cells reaches its halfway point. In general, IC50 refers to the concentration that inhibits the measured activity by half.

T3 sequence (Q9HC29 whole entry, the tested form may be a part): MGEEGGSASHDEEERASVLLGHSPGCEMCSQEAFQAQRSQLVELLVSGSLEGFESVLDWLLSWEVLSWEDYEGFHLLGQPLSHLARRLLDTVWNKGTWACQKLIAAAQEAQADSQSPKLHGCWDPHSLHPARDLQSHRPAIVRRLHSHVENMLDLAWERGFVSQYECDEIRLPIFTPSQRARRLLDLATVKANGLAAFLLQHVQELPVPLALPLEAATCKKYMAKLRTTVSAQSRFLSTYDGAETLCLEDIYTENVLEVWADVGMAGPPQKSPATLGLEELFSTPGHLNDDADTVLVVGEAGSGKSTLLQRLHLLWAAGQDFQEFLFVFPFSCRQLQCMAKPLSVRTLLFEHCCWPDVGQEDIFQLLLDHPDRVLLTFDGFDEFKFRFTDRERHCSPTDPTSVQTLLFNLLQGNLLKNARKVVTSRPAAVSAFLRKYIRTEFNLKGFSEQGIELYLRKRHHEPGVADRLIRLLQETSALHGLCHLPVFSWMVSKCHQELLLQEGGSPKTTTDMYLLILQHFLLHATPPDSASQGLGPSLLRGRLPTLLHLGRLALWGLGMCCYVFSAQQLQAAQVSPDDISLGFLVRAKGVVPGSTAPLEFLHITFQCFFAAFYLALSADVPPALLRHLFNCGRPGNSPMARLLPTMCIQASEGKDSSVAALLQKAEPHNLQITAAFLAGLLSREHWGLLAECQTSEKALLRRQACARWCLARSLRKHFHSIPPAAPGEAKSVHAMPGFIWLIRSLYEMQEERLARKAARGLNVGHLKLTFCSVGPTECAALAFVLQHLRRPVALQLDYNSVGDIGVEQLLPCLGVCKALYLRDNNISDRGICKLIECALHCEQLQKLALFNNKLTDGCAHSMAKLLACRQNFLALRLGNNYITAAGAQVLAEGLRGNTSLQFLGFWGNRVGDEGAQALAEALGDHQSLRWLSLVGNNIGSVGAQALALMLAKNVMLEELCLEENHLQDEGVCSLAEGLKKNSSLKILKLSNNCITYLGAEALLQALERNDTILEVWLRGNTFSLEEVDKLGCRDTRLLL
Sequence of Tumor necrosis factor (P01375 whole entry): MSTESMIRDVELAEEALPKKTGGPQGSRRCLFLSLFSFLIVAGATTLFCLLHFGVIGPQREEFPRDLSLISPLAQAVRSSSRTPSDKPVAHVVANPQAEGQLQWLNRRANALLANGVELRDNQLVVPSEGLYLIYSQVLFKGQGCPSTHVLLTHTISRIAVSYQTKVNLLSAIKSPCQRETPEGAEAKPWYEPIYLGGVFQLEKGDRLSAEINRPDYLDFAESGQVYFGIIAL
Sequence of Beta-galactosidase (Q8VNN2 whole entry): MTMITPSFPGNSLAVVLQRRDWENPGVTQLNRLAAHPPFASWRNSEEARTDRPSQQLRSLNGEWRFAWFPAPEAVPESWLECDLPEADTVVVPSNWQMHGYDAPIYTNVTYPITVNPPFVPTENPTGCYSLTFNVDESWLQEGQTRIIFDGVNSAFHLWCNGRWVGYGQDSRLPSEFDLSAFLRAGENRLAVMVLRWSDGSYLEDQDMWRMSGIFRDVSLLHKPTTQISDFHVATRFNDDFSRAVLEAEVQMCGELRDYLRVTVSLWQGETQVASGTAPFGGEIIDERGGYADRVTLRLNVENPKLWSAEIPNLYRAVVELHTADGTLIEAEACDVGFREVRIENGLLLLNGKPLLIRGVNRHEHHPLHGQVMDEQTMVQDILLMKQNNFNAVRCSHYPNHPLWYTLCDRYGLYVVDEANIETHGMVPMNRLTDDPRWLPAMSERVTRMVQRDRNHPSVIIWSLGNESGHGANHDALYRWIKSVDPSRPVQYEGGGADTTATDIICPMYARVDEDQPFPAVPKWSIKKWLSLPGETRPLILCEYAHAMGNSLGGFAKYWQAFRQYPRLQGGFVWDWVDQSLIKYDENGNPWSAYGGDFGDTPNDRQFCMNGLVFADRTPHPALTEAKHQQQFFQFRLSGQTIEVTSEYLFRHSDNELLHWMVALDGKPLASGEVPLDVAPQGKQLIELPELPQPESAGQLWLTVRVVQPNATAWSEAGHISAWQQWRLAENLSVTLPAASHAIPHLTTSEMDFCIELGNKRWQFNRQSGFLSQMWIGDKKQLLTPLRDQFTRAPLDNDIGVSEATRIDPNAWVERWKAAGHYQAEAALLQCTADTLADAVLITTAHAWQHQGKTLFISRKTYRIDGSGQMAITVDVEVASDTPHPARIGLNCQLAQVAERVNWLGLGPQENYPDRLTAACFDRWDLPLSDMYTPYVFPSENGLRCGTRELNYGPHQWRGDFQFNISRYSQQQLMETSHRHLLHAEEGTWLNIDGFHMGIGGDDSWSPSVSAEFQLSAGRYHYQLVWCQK
Sequence of Nucleotide-binding oligomerization domain-containing protein 1 (Q9Y239 whole entry, the tested form may be a part): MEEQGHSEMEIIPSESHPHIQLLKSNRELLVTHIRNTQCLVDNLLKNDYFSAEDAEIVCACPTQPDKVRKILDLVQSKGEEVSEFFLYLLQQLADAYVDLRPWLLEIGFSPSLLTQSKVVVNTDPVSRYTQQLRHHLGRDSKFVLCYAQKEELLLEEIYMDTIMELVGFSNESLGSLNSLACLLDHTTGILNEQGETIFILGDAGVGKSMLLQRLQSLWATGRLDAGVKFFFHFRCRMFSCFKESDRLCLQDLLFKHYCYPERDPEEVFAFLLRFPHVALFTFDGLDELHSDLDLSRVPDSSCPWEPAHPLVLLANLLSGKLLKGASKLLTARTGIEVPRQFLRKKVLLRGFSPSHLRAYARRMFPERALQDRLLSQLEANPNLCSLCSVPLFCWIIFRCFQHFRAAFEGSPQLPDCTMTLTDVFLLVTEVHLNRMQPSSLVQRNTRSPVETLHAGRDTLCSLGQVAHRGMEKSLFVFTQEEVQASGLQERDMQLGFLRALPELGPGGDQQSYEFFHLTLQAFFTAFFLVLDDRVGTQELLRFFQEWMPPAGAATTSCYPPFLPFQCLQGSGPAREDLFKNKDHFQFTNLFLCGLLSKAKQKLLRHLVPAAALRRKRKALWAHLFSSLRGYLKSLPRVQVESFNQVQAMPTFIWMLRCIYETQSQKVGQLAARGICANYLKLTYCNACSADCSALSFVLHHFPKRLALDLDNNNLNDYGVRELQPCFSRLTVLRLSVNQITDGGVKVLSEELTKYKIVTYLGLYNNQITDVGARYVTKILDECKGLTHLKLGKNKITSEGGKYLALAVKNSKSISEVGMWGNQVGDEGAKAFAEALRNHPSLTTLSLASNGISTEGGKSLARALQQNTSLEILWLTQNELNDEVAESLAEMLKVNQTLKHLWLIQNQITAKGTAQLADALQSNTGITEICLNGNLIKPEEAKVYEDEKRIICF
Sequence of Hepatocyte nuclear factor 4-alpha (P41235 whole entry, the tested form may be a part): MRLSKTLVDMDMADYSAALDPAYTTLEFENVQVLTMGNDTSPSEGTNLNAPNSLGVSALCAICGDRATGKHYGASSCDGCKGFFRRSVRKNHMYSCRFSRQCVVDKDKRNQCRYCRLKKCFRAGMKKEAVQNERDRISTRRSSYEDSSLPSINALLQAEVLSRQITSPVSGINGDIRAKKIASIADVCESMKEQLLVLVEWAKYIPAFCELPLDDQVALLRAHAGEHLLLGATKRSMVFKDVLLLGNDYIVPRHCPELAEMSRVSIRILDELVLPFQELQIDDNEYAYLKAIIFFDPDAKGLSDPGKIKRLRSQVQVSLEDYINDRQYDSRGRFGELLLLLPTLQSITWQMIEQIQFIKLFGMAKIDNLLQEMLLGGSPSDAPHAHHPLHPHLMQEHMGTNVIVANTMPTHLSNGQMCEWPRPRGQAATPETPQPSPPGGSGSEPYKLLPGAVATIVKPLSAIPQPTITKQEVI

With `Cc1ccsc1CCNC(=O)C1CCC(=O)N(CCc2cccc(F)c2)C1` (centres undefined), the concentration at half-maximal activity (AC50) in the assay on HeLa is 99.1 µM (active).

As to `CCS(=O)(=O)N1Cc2ccccc2CC1C(=O)NCC12CC3CC(CC(C3)C1)C2` (centres undefined), the AC50 is 19.8 µM (active) in [1], 2.86 µM (active) in assay [3], 7.35 µM (active) in [5] and 4.37 µM (active) in assay [6]. Further, the EC50 with HEK293 [2] and in the assay with HEK293 [4] was > 59.7 µM (inactive) each time.

With `O=C1NC(=O)N(Cc2ccccc2)C(=O)/C1=C\C=C\c1ccco1`, the CC50 in [7] was > 40 µM (active). In addition, the AC50 was 6.29 µM (active) in [8], 1.48 µM (active) in assay [9] and 30.6 µM (active) with A-375. For the same molecule, the EC50 in the assay on HEK293 [2] and in the assay on HEK293 [4] was > 59.6 µM (inactive) each time. Besides, the half-maximal inhibitory concentration (IC50) in assay [10] was 1.59 µM (active).

Regarding `NC(S)=NN=C(S)Nc1ccccc1`, the IC50 in [11] is > 40 µM (not active). For the same molecule, on Beta-galactosidase, the EC50 is > 40 µM (inactive).

As to `O=C(c1ccc(S(=O)(=O)N2CCCCC2)cc1)N1CCN(CCN2C(=O)c3cccc4cccc(c34)C2=O)CC1`, the 50% inhibitory concentration (IC50) with HEK293 [12] was 8.84 µM (active); in [13], 6.79 µM (active); in the assay with HEK293 [14], > 20 µM (inactive); with HEK293 [15], > 20 µM (inactive); in assay [16], 6.08 µM (active); in the assay on HEK293 [17], > 20 µM (inactive). Further, the IC50 was 6.57 µM (active) with HEK293 [18] and 5.55 µM (active) on Tumor necrosis factor. The EC50 (in the assay on HEK293 [19]; in [20]) was > 20 µM (inactive) in each case.

Regarding `CC(C)(C)c1ccc(C(=O)CSc2nc3ccccc3c(=O)[nH]2)cc1`, the EC50 in assay [21] and in assay [22] was > 99 µM (inactive) each time.

With `COc1cccc(NC(=O)C(=O)NCCC2CCCCN2S(=O)(=O)c2cccs2)c1` (centres undefined), the AC50 in the assay with HeLa is 239 µM (active).

(Values after ChEMBL document CHEMBL1201862, “PubChem BioAssay data set” (2004).)
